According to patent US6372278B1, “Sweetener composition” (Ajinomoto Co., Inc., priority 1998, dated 2002):
Peptide text beside a SMILES is read from it.

Columns and labels:
[1] = Dissolution time in water, elution tester (Japanese Pharmacopoeia paddle method); type: physicochemical
Procedure: (Dissolution rate of raw (original) powders each from NM C-type crystals and APM, and a mixture thereof) A predetermined amount of the sample was introduced into 900 ml water (20° C.) in a 1-L elution tester (the Japanese Pharmacopoeia, Paddle method, 100 rpm) and its dissolution time was measured (end point was visually confirmed).
Specifically, 1 g of sample taken from each mixture consisting of NM C-type crystal raw powder (average particle size of about 100 μm) and APM raw powder (average particle size of about 15 μm, IB-type bundled crystals) at the predetermined various ratios (APM content (% by weight)) shown in Table 1 below, was weighed, and then measured for its dissolution time. For comparison, 1.00 g, 0.90 g, 0.50 g, 0.10 g, 0.03 g, and 0.005 g samples were taken from said NM raw powder, and then their dissolution times were determined in the same manner as above. For the same purpose, 1.00 g, 0.97 g, 0.90 g, 0.50 g, and 0.10 g samples were taken from said APM raw powder, and then their dissolution times were determined in the same manner. […]

[2] = in terms of weight ratio; cited from earlier work
[3] = 0.10 g sample alone in 900 ml water, 20° C., paddle 100 rpm
[4] = 0.50 g sample alone in 900 ml water, 20° C., paddle 100 rpm
[5] = 0.90 g sample alone in 900 ml water, 20° C., paddle 100 rpm
[6] = 1.00 g sample alone in 900 ml water, 20° C., paddle 100 rpm, end point visual
[7] = 0.03 g sample alone in 900 ml water, 20° C., paddle 100 rpm
[8] = 0.51 g of NM alone (same sweetness as 1 g mixture containing 50% APM)

Dissolution time [1, 3]	Dissolution time [1, 4]	Dissolution time [1, 5]	Dissolution time ([1]; 0.97 g sample alone in 900 ml water, 20° C., paddle 100 rpm)	Dissolution time [1, 6]	Dissolution time [1, 7]	Dissolution time [1, 8]	Dissolution time ([1]; 0.005 g sample alone in 900 ml water, 20° C., paddle 100 rpm)	Dissolution time ([1]; 0.5 g alone, 900 ml water, 20° C.)	Compound	sweetness strength [2]
10 min	20 min	27 min	29 min	30 min	–	–	–	–	COC(=O)[C@H](Cc1ccccc1)NC(=O)[C@@H](N)CC(=O)O [APM, Aspartame] (H-Asp-Phe-OMe)	about 200 times that of sucrose
16 min	35 min	40 min	–	42 min	10 min	about 35 minutes	–	–	COC(=O)[C@H](Cc1ccccc1)NC(=O)[C@H](CC(=O)O)NCCC(C)(C)C [NM A-type crystals, N-{N-(3,3-dimethylbutyl)-L-α-aspartyl}-L-phenylalanine 1-methyl ester]	–
40 min	55 min	60 min	–	62 min	30 min	about 55 minutes	4 min	55 min	COC(=O)[C@H](Cc1ccccc1)NC(=O)[C@H](CC(=O)O)NCCC(C)(C)C [NM C-type crystals, N-{N-(3,3-dimethylbutyl)-L-α-aspartyl}-L-phenylalanine 1-methyl ester]	–
–	–	–	–	–	–	–	–	–	COC(=O)[C@H](Cc1ccccc1)NC(=O)[C@H](CC(=O)O)NCCC(C)(C)C [NM]	about 10,000 times that of sucrose
